Key:
[1] = xn = mol fraction of the nth substance listed; conditions: 101 kPa, Liquid; for speed of sound: Frequency=2 MHz, Linear variable-path acoustic interferometer; for mass density: Pycnometric method
[2] = 101 kPa, Liquid; for speed of sound: Frequency=2 MHz, Linear variable-path acoustic interferometer; for mass density: Pycnometric method

CCCCO [butan-1-ol] + CCN(CC)CCO
[1], x2 = 0
Conditions | mass density [kg/m3] | speed of sound [m/s]
293.15 K | 809.53 | 1261.9
303.15 K | 802 | 1224.7
313.15 K | 794.7 | 1188.8

CCN(CC)CCO [(diethylamino)ethanol] + CCCO
[1]
Conditions | mass density, 293.15 K [kg/m3] | mass density, 303.15 K [kg/m3] | mass density, 313.15 K [kg/m3] | speed of sound, 293.15 K [m/s] | speed of sound, 303.15 K [m/s] | speed of sound, 313.15 K [m/s]
x1 = 0.0937 | 817.5 | 809.54 | 801.82 | 1247.7 | 1213.2 | 1178.9
x1 = 0.1994 | 830.99 | 822.96 | 815.1 | 1269 | 1234.4 | 1199.7
x1 = 0.3005 | 842.11 | 833.85 | 825.77 | 1287.6 | 1252.7 | 1217.3
x1 = 0.4048 | 851.86 | 843.48 | 835.1 | 1305 | 1269.5 | 1233.2
x1 = 0.5072 | 859.98 | 851.48 | 842.85 | 1320.1 | 1284.1 | 1247
x1 = 0.61 | 866.74 | 858.08 | 849.33 | 1333.3 | 1296.9 | 1259.2
x1 = 0.7093 | 872.27 | 863.47 | 854.7 | 1344 | 1307.3 | 1269.4
x1 = 0.801 | 876.7 | 867.78 | 858.95 | 1352.2 | 1315.3 | 1277
x1 = 0.9047 | 881.06 | 871.91 | 862.91 | 1360.1 | 1322.3 | 1282.5
x1 = 1 | 884.37 | 874.93 | 865.62 | 1366.5 | 1327.3 | 1285

CCN(CC)CCO [(diethylamino)ethanol] + CCCCO
[1]
Conditions | mass density, 293.15 K [kg/m3] | mass density, 303.15 K [kg/m3] | mass density, 313.15 K [kg/m3] | speed of sound, 293.15 K [m/s] | speed of sound, 303.15 K [m/s] | speed of sound, 313.15 K [m/s]
x1 = 0.0902 | 820.03 | 812.47 | 805.16 | 1276.3 | 1239.8 | 1204.1
x1 = 0.1941 | 831.16 | 823.43 | 815.92 | 1291.2 | 1254.8 | 1218.7
x1 = 0.2938 | 840.82 | 832.89 | 825.11 | 1304.3 | 1267.7 | 1231
x1 = 0.4045 | 850.42 | 842.23 | 834.18 | 1317.8 | 1281 | 1243.5
x1 = 0.5081 | 858.32 | 849.91 | 841.63 | 1329.2 | 1292.2 | 1254
x1 = 0.6088 | 865.03 | 856.45 | 847.98 | 1339.3 | 1302.1 | 1263.3
x1 = 0.7129 | 871.14 | 862.42 | 853.78 | 1348.6 | 1311.2 | 1271.9
x1 = 0.8131 | 876.29 | 867.39 | 858.66 | 1356.4 | 1318.7 | 1278.8
x1 = 0.9037 | 880.46 | 871.28 | 862.4 | 1362.2 | 1324 | 1283.2
x1 = 1 | 884.37 | 874.93 | 865.62 | 1366.5 | 1327.3 | 1285

CCN(CC)CCO [(diethylamino)ethanol]
[2]
Conditions | mass density [kg/m3] | speed of sound [m/s]
293.15 K | 884.37 | 1366.5
303.15 K | 874.93 | 1327.3
313.15 K | 865.62 | 1285

CCCCO [butan-1-ol]
[2]
Conditions | mass density [kg/m3] | speed of sound [m/s]
293.15 K | 809.53 | 1261.9
303.15 K | 802 | 1224.7
313.15 K | 794.7 | 1188.8

CCCO [propan-1-ol] + CCN(CC)CCO
[1], x2 = 0
Conditions | mass density [kg/m3] | speed of sound [m/s]
293.15 K | 803.76 | 1227
303.15 K | 795.82 | 1192.5
313.15 K | 787.88 | 1157.7

CCCO [propan-1-ol]
[2]
Conditions | mass density [kg/m3] | speed of sound [m/s]
293.15 K | 803.76 | 1227
303.15 K | 795.82 | 1192.5
313.15 K | 787.88 | 1157.7

— the NIST ThermoML archive (doi:10.1016/j.jct.2018.06.007)
